We go through one molecule from patent US11554097B2, “Recombinant production of hybrid lipid-biopolymer materials that self-assemble and encapsulate agents” (Duke University, priority 2017, dated 2023).

The conditions of series [1]: cited from earlier work.
Series [2] is described as follows: Encapsulated drug stability, dialysis against PBS. It is filed as physicochemical. As for the experimental part: Encapsulated drug stability: To measure the encapsulated drug's stability, we selected the encapsulated DOX M-EL[…],80 sample as a model system. […] Free DOX and encapsulated DOX were both made to 400 μM and 250 μL was added with a syringe to small volume Slide-a-Lyzer dialysis cassettes with a 3,500 Da molecular weight cutoff. […] At various time points, 3 mL of the filtrate was removed and replaced with fresh PBS. The fluorescence of the starting sample, filtrate, and retentate were measured in duplicate with a Wallac 1420 Victor3 Plate Reader (Perkin Elmer). Relative fluorescing units were converted to DOX concentrations using a standard curve made using serial dilution of free and encapsulated DOX. […] The cumulative DOX released was calculated and plotted as a function of dialysis time. […] At the end of the one week study, the retentate from each sample was removed and measured.

In the case of `COc1cccc2c1C(=O)c1c(O)c3c(c(O)c1C2=O)C[C@@](O)(C(=O)CO)C[C@@H]3O[C@H]1C[C@H](N)[C@H](O)[C@H](C)O1` [DOXFree, doxorubicin], the “octanol-water distribution coefficient (log D pH 7.5)” value in series [1] is listed as 2.4. In addition, the “DOX filtered out of cassette” value in series [2] (after a week at 37° C.) is reported as 99%. Moreover, in series [2] (dialysis against PBS, 37° C.), the “time to reach equilibrium in dialysis” value is at most 24 h.
